Reference: patent US10597388B2, “Pyridazinone herbicides” (FMC CORPORATION, priority 2014, dated 2020)

Columns and labels:
Assay type in all cases: in vivo
[1] = test system: morningglory (Ipomoea coccinea); assay: Test C greenhouse herbicide test, pre- and postemergence
How it was run: (§1)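 Greenhouse pots; pre-em on seeded loam:sand blend, post-em on 2–18 cm plants (1–4 leaf) in sphagnum peat/vermiculite medium. Formulation: non-phytotoxic solvent + surfactant. Read-out: visual % control (0–100) vs controls at 13–15 d.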

[2] = test system: waterhemp (common waterhemp, Amaranthus rudis); assay: as above
How it was run: as §1

[3] = test system: johnsongrass (Sorghum halepense); assay: as above
How it was run: as §1

[4] = test system: foxtail, giant (giant foxtail, Setaria faberii); assay: as above
How it was run: as §1

[5] = test system: ragweed (common ragweed, Ambrosia elatior); assay: as above
How it was run: as §1

[6] = test system: velvetleaf (Abutilon theophrasti); assay: as above
How it was run: as §1

corn (Zea mays) = assay: as above
How it was run: as §1

[7] = test system: lambsquarters (Chenopodium album); assay: as above
How it was run: as §1

[8] = test system: ryegrass, Italian (Italian ryegrass, Lolium multiflorum); assay: as above
How it was run: as §1

[9] = test system: blackgrass (Alopecurus myosuroides); assay: as above
How it was run: as §1

[10] = test system: oilseed rape (Brassica napus); assay: as above
How it was run: as §1

[11] = test system: pigweed (Amaranthus retroflexus); assay: as above
How it was run: as §1

soybean (Glycine max) = assay: as above
How it was run: as §1

[12] = test system: crabgrass, large (large crabgrass, Digitaria sanguinalis); assay: as above
How it was run: as §1

[13] = test system: oat, wild (wild oat, Avena fatua); assay: Test C greenhouse herbicide test, postemergence; conditions: for Plant response rating, Oat, Wild: Postemergence
How it was run: (§2)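 Steps: pot plants in peat-based medium; spray postemergence at 1- to 4-leaf stage; hold in greenhouse 13 to 15 d; score visually against controls from 0 (no effect) to 100 (complete control).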

kochia (Kochia scoparia) = assay: Test C greenhouse herbicide test, postemergence; conditions: for Plant response rating, Kochia: Postemergence
How it was run: as §2

[14] = Postemergence, 125 g ai/ha, scale 0 to 100, 0 is no effect, 100 is complete control
[15] = Postemergence, 250 g ai/ha, scale 0 to 100, 0 no effect, 100 complete control, 13 to 15 d
[16] = Preemergence, 31 g ai/ha, scale 0 to 100, 0 is no effect, 100 is complete control
[17] = Preemergence, 62 g ai/ha, scale 0 to 100, 0 is no effect, 100 is complete control
[18] = Preemergence, 125 g ai/ha, scale 0 to 100, 0 is no effect, 100 is complete control
[19] = Preemergence, 250 g ai/ha, scale 0 to 100 (0 no effect, 100 complete control)
[20] = postemergence, 62 g ai/ha, scale 0 to 100, 0 no effect, 100 complete control
[21] = Postemergence, 31 g ai/ha, 0 to 100 scale (0 no effect, 100 complete control)
[22] = 125 g ai/ha, scale 0 to 100, 0 is no effect, 100 is complete control
[23] = 250 g ai/ha, scale 0 to 100, 0 no effect, 100 complete control, 13 to 15 d

## CCOC(=O)Oc1c(C)nn(C)c(=O)c1-c1c(C)sc2ccc(C)cc12 [Compound 82]
[1]; [14]
  Plant response rating, Morningglory: 100
[1]; [15]
  Plant response rating, Morningglory: 100
[1]; [16]
  Plant response rating, Morningglory: 85
[1]; [17]
  Plant response rating, Morningglory: 90
[1]; [18]
  Plant response rating, Morningglory: 95
[1]; [19]
  Morningglory plant response rating: 95
[1]; [20]
  Morningglory plant response rating: 100
[2]; [14]
  Plant response rating, Waterhemp: 90
[2]; [15]
  Plant response rating, Waterhemp: 98
[2]; [16]
  Plant response rating, Waterhemp: 100
[2]; [17]
  Plant response rating, Waterhemp: 100
[2]; [18]
  Plant response rating, Waterhemp: 100
[2]; [19]
  Waterhemp plant response rating: 100
[2]; [20]
  Waterhemp plant response rating: 98
[3]; [14]
  Plant response rating, Johnsongrass: 10
[3]; [15]
  Plant response rating, Johnsongrass: 10
[3]; [16]
  Plant response rating, Johnsongrass: 45
[3]; [17]
  Plant response rating, Johnsongrass: 65
[3]; [18]
  Plant response rating, Johnsongrass: 60
[3]; [19]
  Johnsongrass plant response rating: 40
[3]; [20]
  Johnsongrass plant response rating: 5
[4]; [14]
  Plant response rating, Foxtail, Giant: 60
[4]; [15]
  Plant response rating, Foxtail, Giant: 80
[4]; [16]
  Plant response rating, Foxtail, Giant: 60
[4]; [17]
  Plant response rating, Foxtail, Giant: 85
[4]; [18]
  Plant response rating, Foxtail, Giant: 90
[4]; [19]
  Foxtail, Giant plant response rating: 100
[4]; [20]
  Foxtail, Giant plant response rating: 25
[5]; [14]
  Plant response rating, Ragweed: 95
[5]; [15]
  Plant response rating, Ragweed: 95
[5]; [16]
  Plant response rating, Ragweed: 85
[5]; [17]
  Plant response rating, Ragweed: 90
[5]; [18]
  Plant response rating, Ragweed: 90
[5]; [19]
  Ragweed plant response rating: 95
[5]; [20]
  Ragweed plant response rating: 98
[6]; [14]
  Plant response rating, Velvetleaf: 95
[6]; [15]
  Plant response rating, Velvetleaf: 90
[6]; [16]
  Plant response rating, Velvetleaf: 65
[6]; [17]
  Plant response rating, Velvetleaf: 80
[6]; [18]
  Plant response rating, Velvetleaf: 85
[6]; [19]
  Velvetleaf plant response rating: 90
[6]; [20]
  Velvetleaf plant response rating: 80
Corn (Zea mays); [21]
  Corn plant response rating: 35
Corn (Zea mays); [14]
  Plant response rating, Corn: 10
Corn (Zea mays); [15]
  Plant response rating, Corn: 5
Corn (Zea mays); [16]
  Plant response rating, Corn: 0
Corn (Zea mays); [17]
  Plant response rating, Corn: 0
Corn (Zea mays); [18]
  Plant response rating, Corn: 20
Corn (Zea mays); [19]
  Corn plant response rating: 25
Corn (Zea mays); [20]
  Corn plant response rating: 30
[7]; [14]
  Plant response rating, Lambsquarters: 98
[7]; [15]
  Plant response rating, Lambsquarters: 100
[7]; [16]
  Plant response rating, Lambsquarters: 85
[7]; [17]
  Plant response rating, Lambsquarters: 90
[7]; [18]
  Plant response rating, Lambsquarters: 98
[7]; [19]
  Lambsquarters plant response rating: 98
[7]; [20]
  Lambsquarters plant response rating: 98
[8]; [14]
  Plant response rating, Ryegrass, Italian: 85
[8]; [15]
  Plant response rating, Ryegrass, Italian: 85
[8]; [16]
  Plant response rating, Ryegrass, Italian: 80
[8]; [17]
  Plant response rating, Ryegrass, Italian: 85
[8]; [18]
  Plant response rating, Ryegrass, Italian: 85
[8]; [19]
  Ryegrass, Italian plant response rating: 90
[8]; [20]
  Ryegrass, Italian plant response rating: 85
[9]; [21]
  Blackgrass plant response rating: 10
[9]; [14]
  Plant response rating, Blackgrass: 35
[9]; [15]
  Plant response rating, Blackgrass: 40
[9]; [16]
  Plant response rating, Blackgrass: 50
[9]; [17]
  Plant response rating, Blackgrass: 60
[9]; [18]
  Plant response rating, Blackgrass: 65
[9]; [19]
  Blackgrass plant response rating: 80
[9]; [20]
  Blackgrass plant response rating: 35
[10]; [14]
  Plant response rating, Oilseed Rape: 50
[10]; [15]
  Plant response rating, Oilseed Rape: 75
[10]; [16]
  Plant response rating, Oilseed Rape: 0
[10]; [17]
  Plant response rating, Oilseed Rape: 0
[10]; [18]
  Plant response rating, Oilseed Rape: 0
[10]; [19]
  Oilseed Rape plant response rating: 85
[10]; [20]
  Oilseed Rape plant response rating: 40
[11]; [14]
  Plant response rating, Pigweed: 90
[11]; [15]
  Plant response rating, Pigweed: 90
[11]; [16]
  Plant response rating, Pigweed: 95
[11]; [17]
  Plant response rating, Pigweed: 100
[11]; [18]
  Plant response rating, Pigweed: 100
[11]; [19]
  Pigweed plant response rating: 100
[11]; [20]
  Pigweed plant response rating: 90
Soybean (Glycine max); [14]
  Plant response rating, Soybean: 5
Soybean (Glycine max); [15]
  Plant response rating, Soybean: 10
Soybean (Glycine max); [16]
  Plant response rating, Soybean: 0
Soybean (Glycine max); [17]
  Plant response rating, Soybean: 100
Soybean (Glycine max); [18]
  Plant response rating, Soybean: 0
Soybean (Glycine max); [19]
  Soybean plant response rating: 0
Soybean (Glycine max); [20]
  Soybean plant response rating: 10
[12]; [14]
  Plant response rating, Crabgrass, Large: 20
[12]; [15]
  Plant response rating, Crabgrass, Large: 30
[12]; [16]
  Plant response rating, Crabgrass, Large: 25
[12]; [17]
  Plant response rating, Crabgrass, Large: 20
[12]; [18]
  Plant response rating, Crabgrass, Large: 70
[12]; [19]
  Crabgrass, Large plant response rating: 80
[12]; [20]
  Crabgrass, Large plant response rating: 20
[13]; [22]
  Plant response rating, Oat, Wild: 90
[13]; [23]
  Plant response rating, Oat, Wild: 90
[13]; [20]
  Oat, Wild plant response rating: 85
Kochia (Kochia scoparia); [22]
  Plant response rating, Kochia: 90
Kochia (Kochia scoparia); [23]
  Plant response rating, Kochia: 90
Kochia (Kochia scoparia); [20]
  Kochia plant response rating: 90
